In patent publication US10251892B2, “Bicyclic heterocycles as FGFR4 inhibitors” (Incyte Corporation, priority 2015, dated 2019):

Target: FGFR3 enzyme (Homo sapiens (Human), UniProt P22607)
Assay: FGFR Enzymatic Assay (peptide phosphorylation, FRET), FGFR3
Type: biochemical
Conditions: IC50 ratio showing FGFR3 selectivity; pre-incubated for 4 hours
Description: The inhibitor potency of the exemplified compounds was measured in an enzyme assay that measures peptide phosphorylation using FRET measurements to detect product formation. Inhibitors were serially diluted in DMSO and a volume of 0.5 μL was transferred to the wells of a 384-well plate.
GraphPad prism3 was used to analyze the data.

Chain of FGFR3 enzyme (P22607 23-806): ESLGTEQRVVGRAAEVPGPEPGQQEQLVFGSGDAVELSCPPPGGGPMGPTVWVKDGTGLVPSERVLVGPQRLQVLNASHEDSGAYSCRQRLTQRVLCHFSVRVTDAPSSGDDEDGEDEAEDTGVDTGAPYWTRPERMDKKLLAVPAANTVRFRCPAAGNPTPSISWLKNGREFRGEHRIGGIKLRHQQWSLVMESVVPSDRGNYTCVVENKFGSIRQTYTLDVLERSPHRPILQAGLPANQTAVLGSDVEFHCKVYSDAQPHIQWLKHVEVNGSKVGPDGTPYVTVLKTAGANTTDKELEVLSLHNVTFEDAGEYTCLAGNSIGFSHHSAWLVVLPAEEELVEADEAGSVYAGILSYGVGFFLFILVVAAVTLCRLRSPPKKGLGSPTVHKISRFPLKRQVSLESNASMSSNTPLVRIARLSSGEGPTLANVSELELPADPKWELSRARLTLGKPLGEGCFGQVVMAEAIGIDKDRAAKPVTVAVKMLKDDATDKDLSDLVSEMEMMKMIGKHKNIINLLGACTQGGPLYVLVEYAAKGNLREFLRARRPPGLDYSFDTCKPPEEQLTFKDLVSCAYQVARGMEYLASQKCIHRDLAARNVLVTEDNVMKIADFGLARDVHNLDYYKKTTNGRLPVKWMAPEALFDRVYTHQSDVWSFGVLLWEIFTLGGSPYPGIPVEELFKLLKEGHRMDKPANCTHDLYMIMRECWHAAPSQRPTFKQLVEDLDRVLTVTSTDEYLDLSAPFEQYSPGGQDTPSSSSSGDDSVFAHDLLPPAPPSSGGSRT

Row | Compound | FGFR1/FGFR3 | FGFR4/FGFR3
1 | CCN1C(=O)N(c2c(F)c(OC)cc(OC)c2F)Cc2cnc(-c3cn(CC(=O)N4CCOCC4)nc3C)cc21 [Example 51, 3-(2,6-difluoro-3,5-dimethoxyphenyl)-1-ethyl-7-(3-methyl-1-(2-morpholino-2-oxoethyl)-1H-pyrazol-4-yl)-3,4-dihydropyrido[4,3-d]pyrimidin-2(1H)-one] | >1 | >1
2 | COc1cc(OC)c(F)c(N2Cc3cnc(-c4cn(C)nc4C)cc3N(c3ccc4nc(C)oc4c3)C2=O)c1F [Example 75, 3-(2,6-difluoro-3,5-dimethoxyphenyl)-7-(1,3-dimethyl-1H-pyrazol-4-yl)-1-(2-methylbenzo[d]oxazol-6-yl)-3,4-dihydropyrido[4,3-d]pyrimidin-2(1H)-one] | >5 | >3
3 | COc1cc(OC)c(F)c(N2Cc3cnc(-c4cn(CCC#N)nc4C)cc3C3(CC3)C2=O)c1F [Example 156, 3-(4-(2′-(2,6-difluoro-3,5-dimethoxyphenyl)-3′-oxo-2′,3′-dihydro-1′H-spiro[cyclopropane-1,4′-[2,7]naphthyridine]-6′-yl)-3-methyl-1H-pyrazol-1-yl)propanenitrile] | >5 | >1
4 | COc1cc(OC)c(F)c(N2Cc3cnc(-c4cn(C)nc4C)cc3N(C3CCN(S(C)(=O)=O)CC3)C2=O)c1F [Example 71, 3-(2,6-difluoro-3,5-dimethoxyphenyl)-7-(1,3-dimethyl-1H-pyrazol-4-yl)-1-(1-(methylsulfonyl)piperidin-4-yl)-3,4-dihydropyrido[4,3-d]pyrimidin-2(1H)-one] | >5 | >3
5 | COc1cc(OC)c(F)c(N2Cc3cnc(-c4cn(C)nc4C)cc3N(C3CCN(C(C)=O)CC3)C2=O)c1F [Example 43, 1-(1-acetylpiperidin-4-yl)-3-(2,6-difluoro-3,5-dimethoxyphenyl)-7-(1,3-dimethyl-1H-pyrazol-4-yl)-3,4-dihydropyrido[4,3-d]pyrimidin-2(1H)-one] | >10 | >5
6 | COc1cc(OC)c(F)c(N2Cc3cnc(-c4cn(C)nc4C)cc3N(c3ccc4ccncc4c3)C2=O)c1F [Example 63, 3-(2,6-difluoro-3,5-dimethoxyphenyl)-7-(1,3-dimethyl-1H-pyrazol-4-yl)-1-(isoquinolin-7-yl)-3,4-dihydropyrido[4,3-d]pyrimidin-2(1H)-one] | >10 | >5
7 | CCN1C(=O)N(c2c(F)c(OC)cc(OC)c2F)Cc2cnc(-c3ccc(C(C)(C)C#N)nc3)cc21 [Example 26, 2-(5-(3-(2,6-difluoro-3,5-dimethoxyphenyl)-1-ethyl-2-oxo-1,2,3,4-tetrahydropyrido[4,3-d]pyrimidin-7-yl)pyridin-2-yl)-2-methylpropanenitrile] | >5 | >5
8 | COc1cc(OC)c(F)c(N2Cc3cnc(-c4cn(C)nc4C)cc3N(C[C@H]3CCOC3)C2=O)c1F [Example 108, (R)-3-(2,6-difluoro-3,5-dimethoxyphenyl)-7-(1,3-dimethyl-1H-pyrazol-4-yl)-1-((tetrahydrofuran-3-yl)methyl)-3,4-dihydropyrido[4,3-d]pyrimidin-2(1H)-one] | >3 | >3
9 | COc1cc(OC)c(F)c(N2Cc3cnc(-c4cn(C)nc4C)cc3N(Cc3ccc(F)c(F)c3)C2=O)c1F [Example 73, 3-(2,6-difluoro-3,5-dimethoxyphenyl)-1-(3,4-difluorobenzyl)-7-(1,3-dimethyl-1H-pyrazol-4-yl)-3,4-dihydropyrido[4,3-d]pyrimidin-2(1H)-one] | >5 | >10
10 | COC(=O)N1CCC(N2C(=O)N(c3c(F)c(OC)cc(OC)c3F)Cc3cnc(-c4cn(C)nc4C)cc32)CC1 [Example 122, Methyl 4-(3-(2,6-difluoro-3,5-dimethoxyphenyl)-7-(1,3-dimethyl-1H-pyrazol-4-yl)-2-oxo-3,4-dihydropyrido[4,3-d]pyrimidin-1(2H)-yl)piperidine-1-carboxylate] | >5 | >5
11 | COc1cc(OC)c(F)c(N2Cc3cnc(-c4ccc(C5(C#N)CCC5)nc4)cc3N(c3ccncn3)C2=O)c1F [Example 135, 1-(5-(3-(2,6-difluoro-3,5-dimethoxyphenyl)-2-oxo-1-(pyrimidin-4-yl)-1,2,3,4-tetrahydropyrido[4,3-d]pyrimidin-7-yl)pyridin-2-yl)cyclobutanecarbonitrile] | >5 | >10
12 | COc1cc(OC)c(F)c(N2Cc3cnc(-c4cn(C)nc4C)cc3N(c3cnccn3)C2=O)c1F [Example 70, 3-(2,6-difluoro-3,5-dimethoxyphenyl)-7-(1,3-dimethyl-1H-pyrazol-4-yl)-1-(pyrazin-2-yl)-3,4-dihydropyrido[4,3-d]pyrimidin-2(1H)-one] | >5 | >5
13 | COc1cc(OC)c(F)c(N2Cc3cnc(-c4cn(C)nc4C)cc3N(c3ccc(S(C)(=O)=O)cc3)C2=O)c1F [Example 98, 3-(2,6-difluoro-3,5-dimethoxyphenyl)-7-(1,3-dimethyl-1H-pyrazol-4-yl)-1-(4-(methylsulfonyl)phenyl)-3,4-dihydropyrido[4,3-d]pyrimidin-2(1H)-one] | >5 | >10
14 | COc1cc(OC)c(F)c(N2Cc3cnc(-c4cn(C)nc4C)cc3N(C3CCOC3)C2=O)c1F (stereo not shown) [Example 33, 3-(2,6-difluoro-3,5-dimethoxyphenyl)-7-(1,3-dimethyl-1H-pyrazol-4-yl)-1-(tetrahydrofuran-3-yl)-3,4-dihydropyrido[4,3-d]pyrimidin-2(1H)-one] | >5 | >5

Second part, the molecule after the results:

Row | FGFR1/FGFR3 | FGFR4/FGFR3 | Compound
15 | >3 | >5 | COc1cc(OC)c(F)c(N2Cc3cnc(-c4cn(C)nc4C)cc3N(c3ccccc3F)C2=O)c1F [Example 110, 3-(2,6-difluoro-3,5-dimethoxyphenyl)-7-(1,3-dimethyl-1H-pyrazol-4-yl)-1-(2-fluorophenyl)-3,4-dihydropyrido[4,3-d]pyrimidin-2(1H)-one]
16 | >10 | >3 | COc1cc(OC)c(F)c(N2Cc3cnc(-c4cnn(C5CCN(S(C)(=O)=O)C5)c4)cc3C3(CC3)C2=O)c1F (stereo not shown) [Example 147, 2′-(2,6-difluoro-3,5-dimethoxyphenyl)-6′-(1-(1-(methylsulfonyl)pyrrolidin-3-yl)-1H-pyrazol-4-yl)-1′H-spiro[cyclopropane-1,4′-[2,7]naphthyridin]-3′(2′H)-one]
17 | >5 | >10 | COc1cc(OC)c(F)c(N2Cc3cnc(-c4cn(C)nc4C)cc3N(Cc3ccc(F)cc3)C2=O)c1F [Example 34, 3-(2,6-difluoro-3,5-dimethoxyphenyl)-7-(1,3-dimethyl-1H-pyrazol-4-yl)-1-(4-fluorobenzyl)-3,4-dihydropyrido[4,3-d]pyrimidin-2(1H)-one]
18 | >1 | >5 | COc1cc(OC)c(F)c(N2Cc3cnc(-c4cn(C)nc4C)cc3N(c3ccc4ncsc4c3)C2=O)c1F [Example 41, 1-(1,3-benzothiazol-6-yl)-3-(2,6-difluoro-3,5-dimethoxyphenyl)-7-(1,3-dimethyl-1H-pyrazol-4-yl)-3,4-dihydropyrido[4,3-d]pyrimidin-2(1H)-one]
19 | >10 | >3 | COc1cc(OC)c(F)c(N2Cc3cnc(-c4cnn(CCC5CCN(S(C)(=O)=O)CC5)c4)cc3C3(CC3)C2=O)c1F [Example 148, 2′-(2,6-difluoro-3,5-dimethoxyphenyl)-6′-(1-(2-(1-(methylsulfonyl)piperidin-4-yl)ethyl)-1H-pyrazol-4-yl)-1′H-spiro[cyclopropane-l,4′-[2,7]naphthyridin]-3′(2′H)-one]
20 | >5 | >5 | COc1cc(OC)c(F)c(N2Cc3cnc(-c4cn(C)nc4C)cc3N(Cc3cc(C(C)C)on3)C2=O)c1F [Example 93, 3-(2,6-difluoro-3,5-dimethoxyphenyl)-7-(1,3-dimethyl-1H-pyrazol-4-yl)-1-((5-isopropylisoxazol-3-yl)methyl)-3,4-dihydropyrido[4,3-d]pyrimidin-2(1H)-one]
21 | >5 |  | CCN1C(=O)N(c2c(F)c(OC)cc(OC)c2F)Cc2cnc(-c3cccnc3)cc21 [Example 23, 3-(2,6-difluoro-3,5-dimethoxyphenyl)-1-ethyl-7-(pyridin-3-yl)-3,4-dihydropyrido[4,3-d]pyrimidin-2(1H)-one]
22 | >3 | >5 | COc1cnc(N2C(=O)N(c3c(F)c(OC)cc(OC)c3F)Cc3cnc(-c4cn(C)nc4C)cc32)cn1 [Example 112, 3-(2,6-difluoro-3,5-dimethoxyphenyl)-7-(1,3-dimethyl-1H-pyrazol-4-yl)-1-(5-methoxypyrazin-2-yl)-3,4-dihydropyrido[4,3-d]pyrimidin-2(1H)-one]
23 | >5 | >3 | COc1cc(OC)c(F)c(N2Cc3cnc(-c4cn(CC#N)nc4C)cc3C3(CC3)C2=O)c1F [Example 153, 2-(4-(2′-(2,6-difluoro-3,5-dimethoxyphenyl)-3′-oxo-2′,3′-dihydro-1′H-spiro[cyclopropane-1,4′-[2,7]naphthyridine]-6′-yl)-3-methyl-1H-pyrazol-1-yl)acetonitrile]
24 | >5 | >10 | COc1cc(OC)c(F)c(N2Cc3cnc(-c4cn(C)nc4C)cc3N(c3cccnc3)C2=O)c1F [Example 86, 3-(2,6-difluoro-3,5-dimethoxyphenyl)-7-(1,3-dimethyl-1H-pyrazol-4-yl)-1-(pyridin-3-yl)-3,4-dihydropyrido[4,3-d]pyrimidin-2(1H)-one]
25 | >5 | >3 | CCN1C(=O)N(c2c(F)c(OC)cc(OC)c2F)Cc2cnc(-c3cn(CC)nc3C)cc21 [Example 168, 3-(2,6-difluoro-3,5-dimethoxyphenyl)-1-ethyl-7-(1-ethyl-3-methyl-1H-pyrazol-4-yl)-3,4-dihydropyrido[4,3-d]pyrimidin-2(1H)-one]
